Key:
[1] = Kinetics of thioester cleavage (release of thiophenolate, absorbance at 410 nm); details: for fold greater k1 value than ethyl amine / rate constants (k2 and k1) for thioester cleavage: pH 7.0, 25° C.; for fold greater k1 value than ethyl amine: pseudo-unimolecular conditions
Protocol: To identify the optimal nitrogen nucleophile for a thioester, kinetic studies were performed on a model chromogenic thioester: AcGlySC6H4-p-NO2. The rate of release of the thiophenolate anion was monitored by measuring the change in absorbance at 410 nm (Scheme 1). Nitrogen nucleophiles with conjugate-acid pKa values ranging from 4.6 to 10.6 (Table 1) were used in the experiments. The logarithmic values of the second-order rate constants (k2) of the unprotonated primary amines were plotted against the pKa values of their conjugate acids to yield the Brønsted plot shown in FIG. 2A. The data were fitted to the equation^[26]: log k2=log(AB)+(β+β′)pKa−log(A10^βpK^a+B10^β′pK^a) (1) In eq 1, A and B are constants, β′ is the slope of the former part of the Brønsted plot, and β is the slope of the latter part.
Kinetics of thioester cleavage: AcGlySC6H4-p-NO2 was dissolved in anhydrous acetonitrile to a concentration of 0.45 mM and used immediately. Amine solutions (except CF3CH2NH2.HCl) were prepared by dissolving the amine hydrochloride salts in 0.10 M sodium phosphate buffer at pH 7.0 to a concentration of 0.15 M. Reaction mixtures were prepared in a 1,1-mL volume and equilibrated at 25° C. All reactions contained […] acetonitrile. The ionic strength of each reaction mixture was I=0.22-0.25. All reactions were carried out with a large excess of amine and followed pseudo-first-order kinetics. In a cuvette containing 0.10 M sodium phosphate buffer at pH 7.0 (967 μL), amine solution (0.15 M, 100 μL) was added and the absorbance at 410 nm was adjusted to zero. The thioester (33 μL of a 0.45 mM solution in acetonitrile) was then added to the cuvette, and the absorbance at 410 nm was monitored with time (ε=11,230 M^−1cm^−1 for p-nitrothiophenolate anion). […] This value is likely to be lower in an aqueous buffer, such that the ionization of the p-nitrothiophenol product is virtually complete in all our assays. The final concentration of the thioester in the reaction was 13.64 μM and the final concentration of the amines (except CF3CH2NH2.HCl) was 13.64 mM. Each reaction was performed in triplicate. The reactions were allowed to go to completion, and the t1/2 was determined from the kinetic trace. The t1/2 was corrected by subtracting the t1/2 for hydrolysis from the observed value. Pseudo-first-order rate constants were calculated by using the equation k1=0.693/t1/2. Second-order rate constants were obtained by dividing each observed first-order rate constant by the concentration of free amine. Logarithmic values of second-order rate constants were plotted against the pKa values of the conjugate acids of the respective amines to yield a Brønsted plot.
Using a higher buffer concentration was not ideal, as that would increase the ionic strength to a much value much larger than that in other reaction mixtures. To overcome these problems, the reaction with CF3CH2NH2 was carried out using 40.92 mM CF3CH2NH2.HCl and allowing the pH of the reaction mixture to decrease to 5.8. The observed t12 was corrected by subtracting the t12 for hydrolysis at pH 5.8. The second-order rate constant was calculated by accounting for the concentration of free amine at pH 5.8, and the resulting value was used in the Brønsted plot. The first-order rate constant thus obtained was not compared to those for the other nucleophiles.

[2] = cited from earlier work
[3] = target: T1, Met(−1)RNase A-Gly-mxe intein thioester (UniProt P20533+P61823); experiment: On-resin cleavage of the intein fusion protein thioester; details: on chitin resin
T1 construct: made in house; host or cells: E. coli BL21 (DE3), plasmid pJK01
T1 sequence (P61823+P20533 with tags, fused parts or gaps): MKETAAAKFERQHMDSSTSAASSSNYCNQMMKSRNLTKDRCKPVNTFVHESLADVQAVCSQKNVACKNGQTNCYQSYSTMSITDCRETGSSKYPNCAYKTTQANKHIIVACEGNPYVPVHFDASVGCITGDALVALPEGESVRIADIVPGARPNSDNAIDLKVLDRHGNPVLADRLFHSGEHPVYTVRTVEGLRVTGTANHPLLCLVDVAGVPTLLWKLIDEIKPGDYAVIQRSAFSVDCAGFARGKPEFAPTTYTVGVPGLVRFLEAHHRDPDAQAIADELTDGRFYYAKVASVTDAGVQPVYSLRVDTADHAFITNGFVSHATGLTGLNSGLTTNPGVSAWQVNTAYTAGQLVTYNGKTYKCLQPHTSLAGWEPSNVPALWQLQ
From the text: Next, we sought to use our bifunctional reagents to install an azido group at the C terminus of a model protein. As our protein, we chose bovine pancreatic ribonuclease (RNase A), which has been the object of much seminal work in protein chemistry and has been manipulated previously with expressed protein ligation. RNase A has valine as its C-terminal residue. A valine residue at the C terminus of a target protein is known to have a debilitating effect on the cleavage efficiency of protein-intein thioesters. To avert this problem, we inserted a glycine residue between the C terminus of RNase A and the intein. The resulting Met(−1)RNase A-Gly-mxe intein-chitin-binding domain fusion protein (MW ˜36 kDa) was produced in E. coli, and the cell lysate was loaded onto chitin resin. Azides 1 and 2 were used to induce the on-resin cleavage of the fusion protein. […] The purity of the azido-RNase A (even upon elution from the chitin column) was apparent from SDS-PAGE analysis (FIG. 3A); the integrity of the azido-RNase A was verified by using MALDI-TOF mass spectrometry (FIG. 3B). This procedure produced an overall yield of ˜1 mg of purified azido-RNase A per liter of E. coli culture. […]

[4] = Storage stability of the reagent; format: physicochemical; details: TFA salt, storage under vacuum
From the text: Azide 2 was synthesized by the route in Scheme 3. Briefly, 4-pentenoic acid was subjected to ozonolysis, and the resulting aldehyde was reacted in-situ with Boc-protected hydrazine. The azido group was installed by coupling 1-azido-2-aminoethane (4) to the carboxylic acid. The hydrazone was then reduced selectively with NaCNBH3. The Boc group was removed to produce azide 2 as its trifluoroacetic acid (TFA) salt with an overall yield of 26% (which includes the 80% yield for the synthesis of azide 3).

[5] = tested on: 6-carboxyfluorescein-dArU(dA)2-6-carboxytetramethylrhodamine; experiment: RNase A activity assay on immobilized RNase A; format: biochemical; details: chip overlaid with 10 μM protein, pH 6.0
Protocol: RNase A activity assay on immobilized RNase A. A phosphinothioester chip was overlaid with azido-RNase A (10 μM in 5% DMF/H2O) for 15 min in Ar(g) atmosphere in an AtmosBag™ to immobilize RNase A via Staudinger ligation. The chip was rinsed with sodium phosphate buffer (25 mM) at pH 7.5 (2×20 mL) and then introduced into a vial containing 2-(N-Morpholino)ethanesulfonic acid buffer (0.1 M) at pH 6.0 (22 mL, containing 0.1 M NaCl). A fluorogenic substrate of RNase A, 6-carboxyfluorescein-dArU(dA)2-6-carboxytetramethylrhodamine (10 μl of a 40 μM solution), was introduced into the vial. The vial was placed on a shaker and 2 mL aliquots were withdrawn at various time intervals and the fluorescence measured (λex=493 nm, λem=515 nm). The fluorescence intensity was plotted against time. A phosphinothioester chip was overlaid with wt-RNase A (10 μM in 5% DMF/H2O) and rinsed with sodium phosphate buffer (25 mM) at pH 7.5 (2×20 mL) and a similar assay was performed. As a negative control, a similar assay was performed on a phosphinothioester chip which was not overlaid with RNase A. The percentage of the fluorescent substrate cleaved at various time intervals were subtracted from the corresponding values for the negative control to generate the graph in FIG. 8.

[6] = target: T2, ribonuclease inhibitor protein (RI) (Homo sapiens, UniProt P13489); experiment: RI binding to immobilized RNase A (immunoassay, ellipsometry); details: RI 10 μM, 10 min at 4° C.
T2 sequence (P13489 2-461 limits assumed): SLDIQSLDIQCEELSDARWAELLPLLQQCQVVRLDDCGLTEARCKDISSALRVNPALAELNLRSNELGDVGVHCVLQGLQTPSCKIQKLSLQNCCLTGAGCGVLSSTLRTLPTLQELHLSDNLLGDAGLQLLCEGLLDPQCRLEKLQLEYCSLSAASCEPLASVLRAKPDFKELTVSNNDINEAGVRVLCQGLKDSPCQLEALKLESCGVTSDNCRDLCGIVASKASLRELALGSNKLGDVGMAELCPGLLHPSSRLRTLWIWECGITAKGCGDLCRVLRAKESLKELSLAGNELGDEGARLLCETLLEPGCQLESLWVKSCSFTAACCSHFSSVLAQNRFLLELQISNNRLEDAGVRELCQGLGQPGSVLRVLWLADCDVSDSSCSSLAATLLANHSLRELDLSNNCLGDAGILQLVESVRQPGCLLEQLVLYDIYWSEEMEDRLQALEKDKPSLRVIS
Protocol: RI binding to immobilized RNase A. Azido-RNase A (1 μL, 10 μM in 5% DMF/water) was spotted on phosphinothioester-displaying SAMs on a gold chip for 15 minutes at r.t. in an AtmosBag™ filled with Ar(g). The chip was taken out of the bag and rinsed with sodium phosphate buffer (25 mM) at pH 7.5 (2×20 mL) and incubated in the same buffer for 30 min to remove non-specifically bound RNase A. RI (10 μM in sodium phosphate buffer (25 mM) at pH 7.5 containing 10 mM DTT) was overlaid on the chip for 10 min at 4° C. The chip was then rinsed with sodium phosphate buffer (25 mM) at pH 7.5 containing 10 mM DTT (2×20 mL) and incubated in the same buffer for 15 min.
Detection of RI bound to immobilized RNase A. (i) Immunoassay: After RI binding, the chip was overlaid with bovine serum albumin (2.0 mg/mL in sodium phosphate buffer (25 mM) at pH 7.5) for 15 min. The chip was rinsed with sodium phosphate buffer (25 mM) at pH 7.5 (2×20 mL) and subsequently incubated with chicken primary antibody to RI (12.5 μg/mL in sodium phosphate buffer (25 mM) at pH 7.5) for 15 min. […] The chip was scanned with a Genomic Solutions® GeneTac UC4×4 Fluorescence Scanner using a gain of 50. […]

CNN [CH3NHNH2]
fold greater k1 value than ethyl amine [1]: 100 fold | pKa of conjugate acid [2]: 7.87^[25]

[N-]=[N+]=NCCNC(=O)CNN [azide 1, H2NNHCH2CONHCH2CH2N3]
efficiency of cleaving the protein-intein thioester [3]: much more effective than azide 2 | rate constants (k2 and k1) for thioester cleavage [1]: indistinguishable from those of the α-hydrazino acetyl group

CF3CO2H.H2NNHCH2CH2CH2CONHCH2CH2N3 [azide 2]
rate constants (k2 and k1) for thioester cleavage [1]: much lower than those of methylhydrazine | stability on storage [4]: unstable

CCOC(=O)CNN [C2H5O(O)CCH2NHNH2]
fold greater k1 value than ethyl amine [1]: 30 fold | pKa of conjugate acid [2]: 6.45^[24]

CCN [CH3CH2NH2]
nucleophilicity of unprotonated amines (k2, Brønsted plot) ([1]; all amines deprotonated, 25° C.): best nucleophile | pKa of conjugate acid [2]: 10.63^[22]

CON [CH3ONH2]
pKa of conjugate acid [2]: 4.60^[22]

COC(=O)CN [CH3O(O)CCH2NH2]
pKa of conjugate acid [2]: 7.75^[22]

NCC(F)(F)F [F3CCH2NH2]
nucleophilicity at pH 7.0 (aminolysis versus hydrolysis) ([1]; pH 7.0, standard reaction conditions): poor nucleophile | pKa of conjugate acid [2]: 5.40^[23]

NCCO [HOCH2CH2NH2]
pKa of conjugate acid [2]: 9.50^[22]

B1: wild-type RNase A: bovine pancreatic ribonuclease (RNase A), unmodified wild-type, Sigma Chemical (protein, UniProt P61823 27-150, looked up)
Ribonuclease pancreatic: KETAAAKFERQHMDSSTSAASSSNYCNQMMKSRNLTKDRCKPVNTFVHESLADVQAVCSQKNVACKNGQTNCYQSYSTMSITDCRETGSSKYPNCAYKTTQANKHIIVACEGNPYVPVHFDASV
enzymatic activity of chip incubated with the protein (increase of fluorescence intensity) [5]: small enzymatic activity | RI binding to chip incubated with the protein [6]: No RI binding was observed

Reference: patent publication US8242058B2, “Reagents and methods for appending functional groups to proteins” (Wisconsin Alumni Research Foundation, priority 2006, dated 2012)
